This assay in a line: Conversion of (R)-P88 and (S)-P88 to iloperidone in human liver S9 fraction in the presence of NAD and NADP. The class given is in vitro ADME. The following applies: 13 concentrations 1 to 100 μM, initial rate conditions. The procedure: The aim of this study was to evaluate the potential conversion of (R)-P88 and (S)-P88 to iloperidone in human liver S9 fraction in the presence of NAD and NADP. A copy of the final report from this study, entitled, “InVitro Metabolism of (R)-P88 and (S)-P88 in Human Liver S9 Fraction,” (“Final Report”) is attached.
Three concentrations of (R)-P88 and (S)-P88 (1, 10 and 100 μM) were incubated with human liver S9 fractions in the presence of NAD and NADP. Under initial rate conditions, 13 concentrations of (R)-P88 and (S)-P88 (1 to 100 μM) were incubated with human liver S9 fractions to determine the Michaelis-Menten enzyme kinetic constants, Km and Vmax, for the formation of iloperidone.

For `COc1cc([C@@H](C)O)ccc1OCCCN1CCC(c2noc3cc(F)ccc23)CC1` [R-P88], the “Enzyme kinetic behaviour of the conversion to iloperidone (plot shape / best-fit model)” value is “slightly S-shaped direct plot and “hook”-shaped Eadie-Hofstee plot suggesting allosteric interactions”. As for `COc1cc([C@H](C)O)ccc1OCCCN1CCC(c2noc3cc(F)ccc23)CC1` [S-P88], the entry is “best fit a biphasic saturation enzyme model”.

These data come from patent US10874659B2, “Iloperidone metabolite for use in the treatment of psychiatric disorders” (Vanda Pharmaceuticals, Inc., priority 2012, dated 2020).
